{"source": "paper PMC12406253", "about": "“Exploration of the Neuromodulatory Properties of Fyn and GSK-3β Kinases Exploiting 7‑Azaindole-Based Inhibitors” (Journal of Medicinal Chemistry, 2025)", "key": {"[1]": {"biological_target": "FYNα (Homo sapiens, UniProt P06241)", "sequence (P06241 whole entry)": "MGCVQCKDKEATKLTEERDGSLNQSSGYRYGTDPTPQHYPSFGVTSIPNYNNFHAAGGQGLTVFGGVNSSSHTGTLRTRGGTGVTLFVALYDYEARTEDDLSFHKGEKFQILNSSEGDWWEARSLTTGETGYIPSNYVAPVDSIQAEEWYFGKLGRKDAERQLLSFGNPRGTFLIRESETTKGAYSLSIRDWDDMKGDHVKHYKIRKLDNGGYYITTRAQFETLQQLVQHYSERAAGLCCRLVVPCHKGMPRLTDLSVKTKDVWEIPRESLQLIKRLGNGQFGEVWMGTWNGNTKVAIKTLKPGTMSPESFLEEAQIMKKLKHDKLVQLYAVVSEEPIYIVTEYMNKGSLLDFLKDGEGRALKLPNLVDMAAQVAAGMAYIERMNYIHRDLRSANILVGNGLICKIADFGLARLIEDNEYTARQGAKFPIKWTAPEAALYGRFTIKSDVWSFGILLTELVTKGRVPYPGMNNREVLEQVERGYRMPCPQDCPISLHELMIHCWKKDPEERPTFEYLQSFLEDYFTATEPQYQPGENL", "test": "FYNα kinase assay, LANCE Ultra TR-FRET", "format": "biochemical", "conditions": "for Fyn % Inhibition @ 50 μM: mean ± SD, n.i. = no inhibition; for IC50: mean ± SD of at least three independent determinations, ATP near Km, read-out: Fyn IC50", "protocol": "(§1) GSK-3β and FYNα kinase assays were run in 384-well microplates (OptiPlate-384, White, PerkinElmer) in a total reaction volume of 20 μL. The inhibitory potency against human recombinant GSK-3β and FYNα (Carna Biosciences) was evaluated using the LANCE Ultra (PerkinElmer) time-resolved fluorescence resonance energy transfer (TR-FRET) by measuring the phosphorylation of the ULight-labeled substrate, according to the manufacturer’s instructions. The synthetic peptide surrounding Ser641 of human muscle glycogen synthase (ULight-GS (Ser641/pSer657)) and the synthetic 28-amino acid peptide containing eight Tyr residues placed in different amino acid contexts (ULightTM-TK (PT66)) were selected as specific substrates for GSK-3β and FYNα, respectively. Briefly, test compounds and staurosporine (reference compound) or DMSO (control) are mixed with the enzyme (GSK-3β: 2 nM and FYNα: 1 nM) in a buffer containing 50 mM HEPES (pH 7.5), 1 mM EGTA, 10 mM MgCl2, 2 mM DTT, and 0.01% Tween-20. […] Following incubation, the reaction is stopped by adding 6 mM EDTA. After 5 min, the antiphospho antibody labeled with europium chelate is added. After 1 more hour, the kinase reaction is monitored by irradiation at 320 nm and the fluorescence measured at 615 and 665 nm, using EnVision 2014 Multilabel Reader (PerkinElmer). The calculated signal ratio at 665/615 nm is proportional to the extent of ULight-substrate phosphorylation. The compounds were tested at 11 different concentrations ranging from 3 nM up to 100 μM in triplicate. […] The results were expressed as a percent inhibition of the control enzyme activity.\nDose–response curves were run in at least three independent experiments, performed in three technical replicates. IC50 values (concentrations causing half-maximal enzyme inhibition) were determined by nonlinear regression analysis of the Log[concentration]/response curves generated with mean replicate values using a four parameter Hill equation curve fitting with GraphPad Prism 8 (GraphPad Software Inc., CA-USA)."}, "[2]": {"test_system": "primary rat cerebellar granule neurons (CGNs)", "test": "Neuroprotection in CGNs, serum/potassium deprivation (MTT)", "format": "cell-based", "conditions": "5, 10, and 25 μM, 48 h", "source_text": "First, we evaluated the neuroprotective properties of the selected compounds in the same cell line, once the expression of Fyn and GSK-3β in this cellular model was verified (Figure S2), after a serum/potassium deprivation experiment, which simulates physiological aging (and mortality), triggering around 20% of cell death. In particular, 7 days differentiated CGNs were exposed to serum-free BME medium with low extracellular concentration of K^+ ions and treated at selected doses (i.e., 5, 10, and 25 μM) of compounds for 48 h. Neuronal viability was then determined with an MTT assay.\nTo evaluate the neuroprotective effect of our compounds, we tested increasing concentrations (5 μM, 10 μM, 25 μM) of compounds of interest in differentiated CGNs switched to serum-free BME medium with 5 mM KCl (serum-potassium deprivation) for 48 h to mimic in vitro the naturally occurring death of granule cells. Neuroprotection was evaluated through MTT assay.\nFor MTT assay, thiazolyl blue was added to the culture medium at a final concentration of 0.1 mg/mL. Following a 20 min incubation at 37 °C in the dark, the MTT precipitate was dissolved in 0.1 M Tris–HCl pH 7.5 buffer containing 5% Triton X-100 (all from Sigma-Aldrich) and absorbance was read at 570 nm in a microplate spectrophotometric reader (Bio-Rad)."}, "[3]": {"biological_target": "human recombinant GSK-3β (Homo sapiens, UniProt P49841)", "sequence (P49841 whole entry)": "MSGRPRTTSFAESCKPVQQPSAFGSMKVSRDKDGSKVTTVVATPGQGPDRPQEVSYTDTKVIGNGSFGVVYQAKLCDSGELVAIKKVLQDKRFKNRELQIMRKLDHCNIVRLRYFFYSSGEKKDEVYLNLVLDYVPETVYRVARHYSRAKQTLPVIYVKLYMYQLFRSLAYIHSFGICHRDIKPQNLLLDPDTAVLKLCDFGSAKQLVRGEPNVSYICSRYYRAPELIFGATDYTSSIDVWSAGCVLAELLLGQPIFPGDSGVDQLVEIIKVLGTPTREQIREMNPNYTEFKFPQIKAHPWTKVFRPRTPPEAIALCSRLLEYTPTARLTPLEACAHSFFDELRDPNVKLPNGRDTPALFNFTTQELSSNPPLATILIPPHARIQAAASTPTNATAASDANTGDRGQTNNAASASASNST", "test": "GSK-3β kinase assay, LANCE Ultra TR-FRET", "format": "biochemical", "protocol": "as §1, with “manufacturer's” for “manufacturer’s”, “The synthetic peptide surrounding Ser641 of human muscle glycogen synthase (ULight-GS (Ser641/pSer657)) and the synthetic 28-amino acid peptide containing eight Tyr residues placed in different amino acid contexts (ULightTM-TK (PT66)) were selected as specific substrates for GSK-3β and FYNα, respectively.” left out, “activity. Dose-response curves were run in at least three independent experiments, performed in three technical replicates. IC50 values (concentrations causing half-maximal enzyme inhibition) were determined by nonlinear regression analysis of the Log[concentration]/response curves generated with mean replicate values using a four parameter Hill equation curve fitting with GraphPad Prism 8 (GraphPad Software Inc., CA-USA).” for “activity.”"}, "[4]": {"test_system": "neurospheres (NPCs from the subventricular zone)", "test": "Neurosphere growth analysis (NPC proliferation)", "format": "cell-based, mice", "conditions": "0.1, 1, and 5 μM; 7 days", "protocol": "Based on that, we further investigated the neurogenic and differentiation potential of our kinase inhibitors in cell culture of neurospheres, which are floating pools of NPCs coming from the subventricular zone (SVZ) of six-month-old mice. Particularly, we first analyzed the variation, during 7 days, in number and size of neurosphere population with and without treatment.\nTo investigate the effect of compounds of interest in neurospheres’ growth rate, single spheres were plated in suspension in 96-well plates (5 × 10^3 cells/well) in the presence of compounds (0.1 μM, 1 μM, and 5 μM) in complete DMEM F-12 culture medium. One image/well was acquired every day by using the Sartorius Incucyte Live-Cell Analysis System and evaluated through the Brightfield Spheroid Analysis Software Module. Only aggregates with areas larger than 400 μm^2 were considered for statistical analysis."}, "[5]": {"test_system": "primary rat cerebellar granule neurons (CGNs)", "test": "Neurotoxicity, cell viability in CGNs (MTT)", "format": "cell-based", "conditions": "5, 10, and 25 μM, 24 h", "quoted_text": "A preliminary cell viability assessment was conducted in primary rat cerebellar granule neurons (CGNs), which are considered a reliable model for studying cellular and molecular mechanisms of survival/apoptosis and neurodegeneration/neuroprotection.\nPrimary cerebellar granule cells were dissociated from cerebella and plated on 96-well plates, previously coated with 10 μg/mL poly-L-lysine, at a density of 1.2 × 10^5 cells/0.2 mL medium/well in BME supplemented with 10% heat-inactivated FBS (Life Technologies), 2 mmol/L glutamine, 100 μmol/L gentamicin sulfate, and 25 mM KCl (all from Sigma-Aldrich). Sixteen hours later, 10 μM cytosine arabinofuranoside (Sigma-Aldrich) was added to avoid glial proliferation. After 7 days in vitro, differentiated neurons were shifted to serum-free BME medium and exposed to increasing concentrations (5 μM, 10 μM, 25 μM) of compounds of interest for 24 h. Then, cell viability was evaluated through the MTT assay."}, "[6]": {"test_system": "immortalized murine microglia N9", "test": "Immunomodulation in LPS-treated N9 microglia, Western blot of iNOS and TREM2", "conditions": "2.5 and 5 μM; 100 ng/mL LPS, 24 h", "quoted_text": "To gain a conclusive answer on the potential role of these kinase inhibitors in counteracting neuroinflammatory processes, after the verified induced astrocytic polarization, the ability of selected compounds to modulate inflammatory response was analyzed by favoring the immunomodulatory switch from neurotoxic M1 phenotype of microglia to phagocytic and neuroprotective M2 phenotype, evaluating inducible nitric oxide synthase (iNOS) and TREM2 as M1 and M2 markers (Figure ).\nThe microglial phenotype was evaluated through Western blot analysis of the pro-inflammatory iNOS and anti-inflammatory-TREM2 markers."}, "[7]": {"test_system": "neurospheres (NPCs from the subventricular zone)", "test": "Neurosphere differentiation, immunofluorescence of DCX, GFAP, OLIG2", "format": "cell-based, mice", "conditions": "1 μM; 7 days", "source_text": "Lastly, we move forward to evaluate the neuromodulatory profile of selected compounds that involves the capability to polarize the spontaneous differentiation of neurospheres, which potentially can maturate in neurons or macroglia, such as astrocytes and oligodendrocytes. Modulating NPC differentiation is especially relevant under neurodegenerative conditions as it could offer an intriguing opportunity to achieve polyhedric therapeutic effects. Importantly, neuronal differentiation may help to counteract the progressive neuronal loss, while promoting oligodendrocyte phenotype could support remyelination and neuronal function and the astrocytic polarization may aid to foster a neuroprotective profile. Particularly, after 7 days of treatment at 1 μM, in the same experimental conditions previously reported, cells were fixed and stained with different antibody markers such as doublecortin (DCX) for the immature neurons, glial fibrillary acidic protein (GFAP) for astrocytes, and oligodendrocyte transcription factor 2 (OLIG2) for oligodendrocyte precursors for immunofluorescence analysis (Figure a). […] By driving the maturation of astrocytes, compounds 41 and 43 could exert neuroprotection through multiple mechanisms, including the secretion of neurotrophic factors, enhancement of antioxidant defenses, regulation of water balance, ion homeostasis, and glutamate buffering and recycling. Furthermore, astrocytes support the integrity of the blood–brain barrier (BBB) and aid in the refinement of neural networks via synaptic pruning, further reinforcing their role in preserving brain function and structure.\nNSCs were initially obtained by SVZ microdissection of 6 months-old C57BL/6N wild-type male mice (Mus musculus) and routinely cultured in suspension in DMEM-F12 (Gibco; ThermoFisher Scientific, Waltham, MA, USA) supplemented with 2 mM glutamine, 10 μg/mL insulin from bovine pancreas (Sigma-Aldrich; St Louis, MO, USA), 20 ng/mL epidermal growth factor (EGF; PeproTech EC, London, UK), 20 ng/mL fibroblast growth factor-2 (FGF2; PeproTech), 1% N2 (ThermoFisher Scientific), 1% B27 (ThermoFisher Scientific), 10 units/mL penicillin, and 10 μg streptomycin.\nTo assess the effect of compounds of interest in NSCs differentiation, 30 spheres were plated on 13 mm glass coverslips, previously coated with Matrigel matrix (Corning; New York, USA), in complete DMEM F-12 medium, and treated with 1 μM of compounds of interest. After 7DIV, neurospheres were fixed for 20 min with 4% PFA in PBS 0.1% pH 7.4. Fixed neurospheres were permeabilized in 0.1% Triton/PBS and nonspecific sites were blocked for 1 h with 0.1% Triton/PBS and 5% normal goat serum (Sigma-Aldrich; St Louis, MO, USA). Cells were then incubated overnight at 4 °C with the following primary antibodies: Anti-Doublecortin DCX (Abcam, Cambridge, UK), GFAP (Dakopatts), OLIG2 (Santa Cruz Biotechnology), 1:500 dilution in 0.1% Triton/PBS with 2% normal goat serum. After 3 washes in 0.1% Triton/PBS, specific secondary antibodies were added for 2 h at RT in the dark: Donkey anti-Mouse IgG Alexafluor 555 (Abcam, Cambridge, UK), Goat anti-Rabbit IgG Alexafluor 555 (Abcam, Cambridge, UK), 1:1000 dilution in 0.1% Triton/PBS with 2% normal goat serum. Following 3 washes in 0.1% Triton/PBS, nuclei were stained with DAPI (2 μg/mL, Sigma-Aldrich) for 5 min. Glass coverslips were mounted by using Ultracruz Aqueous Mounting Medium with DAPI (Santa Cruz Biotechnology). Neurospheres confocal images were obtained with a Nikon EZ-C1 microscope (60× objective) and the z-stack function (1024 steps and 1 μm thickness layers; 40 total stacks). 3D image reconstruction was performed by using Fiji ImageJ2 software, z-project plugin, and selecting the sum stacks’ function. Fluorescence intensity index was estimated as the ratio of markers’ positive cells intensity/total cells fluorescence intensity stained with DAPI per ROI."}, "[8]": {"test": "BBB permeability in hCMEC/D3 transwell model", "conditions": "human", "quoted_text": "To this aim, the immortalized human brain endothelial cell line (hCMEC/D3) was used since it mimics the brain endothelium-restricted permeability and expresses most of the transporters and receptors present in vivo, constituting a valuable in vitro model of the human BBB crossing system.\nBBB permeability assay was conducted as described in Albertini et al. The brain microvascular endothelial cells (hCMEC/D3) were seeded at the density of 5 × 10^4 cells per cm^2 in the upper compartment of Transwell filters (polyester, pore size 0.4 μm, 12-well tissue culture transwell; Corning), precoated with rat tail collagen type I (0.1 mg/mL; Roche). They were grown for 7 days up to confluence in Endothelial Cell Growth Medium 2 (Promocell), supplemented with penicillin/streptomycin 100 U/mL, in a humidified, 5% CO2 incubator at 37 °C. Confluent monolayers were washed in prewarmed HBSS buffer, and the selected compounds were added to the apical (AP) side at a concentration of 100 μM. […] Samples (100 μL) were collected from the BL side at different time points (15, 30, 60, and 90 min) and then replaced with the corresponding volume of HBSS buffer. […] The concentration of compounds was determined using a Ultimate 3000 HPLC system (ThermoFisher) with UV–vis detection at the maximum absorption wavelength of each compound except for inulin as determined by a spectrophotometric method using a Tecan Sunrise absorbance microplate reader. […] The permeability coefficient (Papp) was calculated as follows: Papp = (ΔQ/Δt)/(C [donor] × A), where ΔQ/Δt represents the permeation rate (mol/s), C [donor] is the initial compound concentration in the donor compartment at time 0 (mol/cm^3), and A represents the surface area of the filter (1.12 cm^2)."}, "[9]": {"conditions": "50 μM, mean ± SD, n.i. = no inhibition"}}, "data": [{"smiles": "Br.CN(Cc1ccccc1)c1nc(-c2c[nH]c3ncccc23)cs1", "note": "[Compound 33, N-Benzyl-N-methyl-4-(1H-pyrrolo[2,3-b]pyridin-3-yl)thiazol-2-amine Hydrobromide]", "values": [{"measurement": "Fyn % Inhibition @ 50 μM", "setting": "[1]", "result": "n.i."}, {"measurement": "Neuroprotection on CGNs (cell viability after serum/potassium deprivation)", "setting": "[2]", "result": "almost equipotent to inactive compounds"}, {"measurement": "IC50", "setting": "[3]; mean ± SD of at least three independent determinations, ATP near Km", "result": "2450 ± 540", "unit": "nM"}]}, {"smiles": "c1ccc(CNc2nnc(-c3c[nH]c4ncccc34)s2)cc1", "note": "[Compound 40, N-Benzyl-5-(1H-pyrrolo[2,3-b]pyridin-3-yl)-1,3,4-thiadiazol-2-amine]", "values": [{"measurement": "Neuroprotection on CGNs (cell viability after serum/potassium deprivation)", "setting": "[2]", "result": "almost equipotent to inactive compounds"}, {"measurement": "Neurosphere number (object count per image), neurogenesis", "setting": "[4]", "result": "pronounced neurogenesis"}, {"measurement": "Neurotoxicity on CGNs (cell viability compared to control)", "setting": "[5]", "result": "not neurotoxic"}, {"measurement": "TREM2 expression (M2 marker) vs LPS", "setting": "[6]", "result": "no significant variations"}, {"measurement": "Differentiation toward astrocytes (GFAP)", "setting": "[7]", "result": "negatively affected astrocytic differentiation"}, {"measurement": "Differentiation toward neurons (DCX)", "setting": "[7]", "result": "mild increment"}, {"measurement": "Differentiation toward oligodendrocytes (OLIG2)", "setting": "[7]", "result": "inactive regarding oligodendrocytes"}]}, {"smiles": "Cc1cc(=O)n(-c2ccccc2)n1C", "note": "[Antypirine, antipyrine, reference compound]", "values": [{"measurement": "Papp A→B at 90 min, 100 μM", "setting": "[8]", "result": "28 ± 0.53", "unit": "×10⁻⁶ cm/s"}]}, {"smiles": "Br.CN(C)c1ccc(CNc2nc(-c3c[nH]c4ncccc34)cs2)cc1", "note": "[Compound 26, N-(4-(Dimethylamino)benzyl)-4-(1H-pyrrolo[2,3-b]pyridin-3-yl)thiazol-2-amine Hydrobromide]", "values": [{"measurement": "Fyn % Inhibition @ 50 μM", "setting": "[1]", "result": "completely inactive"}, {"measurement": "GSK-3β % Inhibition @ 50 μM", "setting": "[3]; [9]", "result": "completely inactive"}, {"measurement": "Neurotoxicity on CGNs (cell viability compared to control)", "setting": "[5]", "result": "not neurotoxic"}, {"measurement": "TREM2 expression (M2 marker) vs LPS", "setting": "[6]", "result": "no significant variations"}]}, {"smiles": "Br.Cc1sc(NCc2ccncc2)nc1-c1c[nH]c2ncccc12", "note": "[Compound 42, 5-Methyl-N-(pyridin-4-ylmethyl)-4-(1H-pyrrolo[2,3-b]pyridin-3-yl)thiazol-2-amine Hydrobromide]", "values": [{"measurement": "IC50", "setting": "[1]", "result": "200 ± 20", "unit": "nM"}, {"measurement": "Neurosphere dimension (brightfield object total area), maturation", "setting": "[4]", "result": "premature increase in dimension"}]}, {"smiles": "Br.c1cnc2[nH]cc(-c3csc(NCc4ccncc4)n3)c2c1", "note": "[Compound 27, N-(Pyridin-4-ylmethyl)-4-(1H-pyrrolo[2,3-b]pyridin-3-yl)thiazol-2-amine Hydrobromide]", "values": [{"measurement": "IC50", "setting": "[1]", "result": "3480 ± 680", "unit": "nM"}, {"measurement": "Neurosphere dimension (brightfield object total area), maturation", "setting": "[4]", "result": "noticeable maturation at days 6 and 7"}, {"measurement": "Neurosphere number (object count per image), neurogenesis", "setting": "[4]", "result": "pronounced neurogenesis"}]}, {"smiles": "Br.COc1ccc(Nc2nc(-c3c[nH]c4ncccc34)cs2)cc1", "note": "[Compound 12, N-(4-Methoxyphenyl)-4-(1H-pyrrolo[2,3-b]pyridin-3-yl)thiazol-2-amine Hydrobromide]", "values": [{"measurement": "Fyn % Inhibition @ 50 μM", "setting": "[1]", "result": "n.i."}, {"measurement": "inhibition at 50 µM", "setting": "[3]; [9]", "result": 34.6, "unit": "%"}]}]}
